Measurements taken from patent US20250313528A1, “NOVEL COMPOUND AND PHARMACEUTICAL COMPOSITION FOR PREVENTING OR TREATING PULMONARY FIBROSIS COMPRISING SAME AS ACTIVE INGREDIENT” (GIL MEDICAL CENTER, priority 2022, published 2025).

Experiments:
[1] = tested on: FN, COL1A1, α-SMA, TGF-β, and CTGF; assay: qRT-PCR of fibrosis-related genes in lung tissue, BLM model; type: in vivo, C57BL/6N mice; settings: BLM mice, compared to the BLM group
Protocol: (§1) Specifically, 7-week-old C57BL/6N mice were exposed to BLM (3-5 units/kg) via the airway. The compounds were administered orally at doses of 200 μg/kg and 500 μg/kg for Compound 1, and 100 μg/kg and 200 μg/kg for Compound 2, three times a week for three weeks starting the day after BLM exposure. Body weight gain was periodically measured during the experimental period, and lung weight was measured at the end of the experiment.
Specifically, to extract RNA from lung tissue, approximately 100 mg of pulverized lung tissue was dispensed into 1.5 mL tubes, and total RNA was extracted using TRIzol reagent (TakaRa Bio Inc., Japan). After adding 1 mL of TRIzol reagent to denature the tissue, the samples were transferred to 1.5 ml tubes, and 200 μl of chloroform was added, followed by vortexing for 20 seconds to mix thoroughly. After reacting at room temperature for 15 minutes, the samples were centrifuged at 14,000 rpm for 20 minutes to obtain the supernatant. An equal volume of isopropyl alcohol was added, inverted, and allowed to stand at room temperature for 10 minutes. The samples were centrifuged at 14,000 rpm for 15 minutes to obtain RNA pellets, washed with 70% ethanol at 14,000 rpm for 5 minutes, and dried for 5 minutes. […] The RNA concentration and purity were measured at OD 260/280 nm using a Nanodrop.

[2] = tested on: bleomycin (BLM)-induced pulmonary fibrosis animal models; assay: Body weight and lung weight in bleomycin-induced pulmonary fibrosis animal model; type: in vivo, C57BL/6N mice; settings: BLM mice; for body weight gain during the experimental period: three times a week for three weeks; for lung weight: end of the experiment, vs normal group and BLM group
Protocol: The inhibitory effects of the finally selected Compound 1 and Compound 2 on pulmonary fibrosis were examined in bleomycin (BLM)-induced pulmonary fibrosis animal models.
as §1

[3] = tested on: bleomycin (BLM)-induced pulmonary fibrosis animal models; assay: H&E and Masson-trichrome histological evaluation of lung, BLM model; type: in vivo, C57BL/6N mice; settings: BLM mice; for degree of fibrosis in the lung tissue: compared to the BLM group; for inflammation in lung tissue (H&E): both doses (Compound 1 200 and 500 μg/kg; Compound 2 100 and 200 μg/kg)
Protocol: as §1
To observe changes in lung tissue, Hematoxylin and Eosin (H&E) staining and Masson-trichrome staining were performed on lung tissue samples to assess the degree of inflammation and fibrosis.
(§2) Specifically, the excised lung tissue was embedded in paraffin and sectioned into 4 μm slices using a microtome. These tissue sections were used for H&E, MT stain, and Immunohistochemistry (IHC). Each experiment was conducted by deparaffinizing and rehydrating the sections using xylene and ethanol. For IHC, the LSAB2 system HRP (DAKO, Carpinteria, CA, USA) kit was used. Antibody retrieval was performed in 0.1 mM citric acid (pH 6), and the experiment was conducted according to the provided instructions. The sections were blocked with blocking buffer at room temperature for 1 hour, then incubated overnight at 4° C. with primary antibodies (fibronectin, collagen 1, α-SMA). After blocking with secondary antibodies at room temperature for 1 hour, the Streptavidin-HRP system was used for 10 minutes, followed by exposure to DAB solution, hematoxylin staining, dehydration, clearing, and mounting with Canada balsam. The stained slides were examined under an optical microscope (BK51, Olympus, Japan). The staining results were quantified using the Image J program.

[4] = tested on: fibronectin, collagen 1, α-SMA; assay: Immunohistochemistry of fibrosis-related proteins in lung tissue, BLM model; type: in vivo, C57BL/6N mice; settings: BLM mice; for expression of α-SMA, collagen, and fibronectin in lung tissue (IHC): compared to the BLM group
Protocol: as §1, §2
To examine the key factors involved in fibrosis, immunohistochemistry (IHC) was performed using the same method as in Example 6-3.

[5] = tested on: FN, COL1A1, and α-SMA; assay: qRT-PCR of fibrosis-related genes in TGF-β1-induced DHLF-IPF cells; type: cell-based, human; settings: 10 μM pretreatment 1 hour, TGF-β1 1 ng/ml 48 hours, FIG. 4c/4d
Protocol: MRC-5 and DHLF-IPF cells were each cultured in growth medium, and the medium was removed. […] The medium was then removed, and the cells were washed once with PBS. Intracellular total RNA was extracted from the cultured cells using TRIzol reagent (TaKaRa Bio Inc., Japan) for gene expression analysis. 1 mL of TRIzol reagent was added to lyse the cells and denature the tissue. The lysate was transferred to each 1.5 mL tube, and 200 μL of chloroform was added thereto, followed by vortexing for 20 seconds to ensure complete mixing. After incubating at room temperature for 15 minutes, the mixture was centrifuged at 14,000 rpm for 20 minutes to obtain the supernatant. After adding an equal volume of isopropyl alcohol, the tubes were inverted and incubated at room temperature for 10 minutes. The sample was centrifuged at 14,000 rpm for 15 minutes to obtain an RNA pellet, which was washed by centrifugation with 70% ethanol for use on RNA at 14,000 rpm for 5 minutes, and dried for 5 minutes. The dried RNA sample was added with 20 μL of distilled water treated with 0.1% diethyl pyrocarbonate (DEPC) to dissolve the pallet and the resultant was used as a sample for cDNA synthesis. 1 μL of the same was used to measure the RNA concentration and purity at O.D. 260/280 nm using a Nanodrop.
Single-stranded cDNA synthesis was performed by mixing 1 μg of the extracted total RNA with 1 μL of oligo-d(T) primer ([…]) and 10 mM dNTP (TaKaRa Bio Inc., Japan), reacting at 65° C. for 5 minutes, followed by rapid cooling. To this template, 4 μL of 5×RT buffer, 0.5 μL of RNA inhibitor, and 100 units of RTase (TaKaRa Bio Inc., Japan) were added, and the total volume was adjusted to 20 μL using DEPC-treated distilled water. […]
Each gene expression level was measured using real-time PCR. […] The specificity of the amplified product was confirmed through melting curve analysis, and the target genes were quantified and compared using GAPDH as a control gene.

CCOC(=O)C(CSC(=S)NCCCC[S+](C)[O-])NC(C)=O (stereo not shown) [Compound 1]
expression of five genes (FN, COL1A1, α-SMA, TGF-β, and CTGF) in lung tissue [1]: significant reduction
body weight gain during the experimental period ([2]; 200 μg/kg orally): steady increase
body weight gain during the experimental period ([2]; 500 μg/kg orally): initially decreased and then gradually increased
degree of fibrosis in the lung tissue ([3]; 200 μg/kg): significantly reduced
degree of fibrosis in the lung tissue ([3]; 500 μg/kg): significantly reduced
inflammation in lung tissue (H&E) [3]: significant reduction in inflammation regardless of concentration
concentration with the best inhibitory effect on weight recovery and related protein expression ([4]; 200 vs 500 μg/kg): 200 µg/kg
expression of α-SMA, collagen, and fibronectin in lung tissue (IHC) [4]: significant reduction
gene expression levels of FN, COL1A1, and α-SMA [5]: significantly reducing the expression levels compared to sulforaphane

C=CCOC(=O)C(CSC(=S)NCCCC[S+](C)[O-])NC(C)=O (stereo not shown) [Compound 2]
expression of five genes (FN, COL1A1, α-SMA, TGF-β, and CTGF) in lung tissue [1]: significant reduction
lung weight ([2]; 100 μg/kg orally): similarly lower levels
body weight gain during the experimental period ([2]; 100 μg/kg orally): steady increase in body weight, approaching levels similar to the normal group
lung weight ([2]; 200 μg/kg orally): similarly lower levels
body weight gain during the experimental period ([2]; 200 μg/kg orally): steady increase in body weight, approaching levels similar to the normal group
degree of fibrosis in the lung tissue ([3]; 100 μg/kg): significantly reduced
degree of fibrosis in the lung tissue ([3]; 200 μg/kg): significantly reduced
inflammation in lung tissue (H&E) [3]: significant reduction in inflammation at both concentrations
expression of α-SMA, collagen, and fibronectin in lung tissue (IHC) [4]: significant reduction in the BLM+GSF-018 group in a dose-dependent manner
gene expression levels of FN, COL1A1, and α-SMA [5]: significantly reducing the expression levels compared to sulforaphane
